# Test results from patent US20140274969A1 (priority 2013, published 2014).
# Like-named read-outs stand apart in the source and are kept apart here.
# Experiments:
# [1] = cited from earlier work
# SCI [2] = settings: rats; 90 mg/kg immediately after SCI then 45 mg/kg every 12 h; cited from earlier work
# [3] = Experimental: Subjects were evaluated for adverse events daily while in hospital and at each subsequent clinical evaluation. All serious adverse events (Table 4) were reviewed promptly by a safety monitoring board composed of clinicians and clinician researchers not otherwise involved in this study. A summary of all adverse events was reviewed every 6 months.
# The model assumed that any change associated with treatment group was constant over these time points. An interaction term between treatment and injury type was included to allow for the possibility that changes associated with treatment group differed among motor-complete and motor-incomplete injured subjects. ASIA sensory scores were similarly evaluated. ASIA motor, pin-prick and light scores were evaluated by the Shapiro-Wilk normality test and were consistent with a normal distribution. Functional recovery data were compared over all data points. Adverse events were categorized by system and mean numbers of events per patient were compared within each system by ANOVA. All statistical tests were two-tailed (a=0.05). […] The Student t-test was then used to estimate the between group difference that this study was powered to detect with power=0.8 and a=0.05.
# SCI [4] = settings: rats; i.p. every 12 h for 3 days, 90 mg/kg then 30 mg/kg; cited from earlier work
# MMP activity = settings: cited from earlier work
# [5] = tested on: hypoxic-ischemic brain injury; settings: mice; s.c. 135 mg/kg then two 68 mg/kg doses at 24-h intervals; cited from earlier work
# [6] = long-term administration, global reports
# [7] = High dose (800 mg tapered by 100 mg each 12 h to 400 mg, 7 days)
# [8] = Low dose (200 mg IV twice daily, 7 days)
structure (smiles),measurement,setting,value
"CN(C)c1ccc(O)c2c1C[C@H]1C[C@H]3[C@H](N(C)C)C(O)=C(C(N)=O)C(=O)[C@@]3(O)C(O)=C1C2=O [minocycline, (2E,4S,4aR,5aS,12aR)-2-(amino-hydroxy-methylidene)-4,7-bis(dimethylamino)-10,11,12a-trihydroxy-4-a,5,5a,6-tetrahydro-4H-tetracene-1,3,12-trione]",serum concentrations well tolerated,[1]; humans,up to 6.2 mg/L
same,cases of drug induced lupus,[1]; [6],33 cases
same,cases of hypersensitivity reaction,[1]; [6],19 cases
same,cases of serum sickness-like reaction,[1]; [6],11 cases
same,cases of single organ dysfunction,[1]; [6],40 cases
same,functional motor control in the hind limbs,SCI [2],improved
same,size of lesions on spinal cords,SCI [2],reduced
same,Autonomic dysreflexia: # of events,[3]; [7],1
same,Autonomic dysreflexia: # of subjects,[3]; [7],1
same,Cardiac: # of events,[3]; [7],14
same,Cardiac: # of subjects,[3]; [7],9
same,Deep venous thrombosis: # of events,[3]; [7],1
same,Deep venous thrombosis: # of subjects,[3]; [7],1
same,Deep venous thrombosis: events/subject,[3]; [7],0.06
same,Endocrine: # of events,[3]; [7],0
same,Endocrine: # of subjects,[3]; [7],0
same,Endocrine: events/subject,[3]; [7],0
same,Gastrointestinal: # of events,[3]; [7],36
same,Gastrointestinal: # of subjects,[3]; [7],12
same,Gastrointestinal: events/subject,[3]; [7],1.88
same,Genito-urinary: # of events,[3]; [7],7
same,Genito-urinary: # of subjects,[3]; [7],5
same,Genito-urinary: events/subject,[3]; [7],0.44
same,Haematological: # of events,[3]; [7],9
same,Haematological: # of subjects,[3]; [7],6
same,Haematological: events/subject,[3]; [7],0.63
same,Infectious: # of events,[3]; [7],28
same,Infectious: # of subjects,[3]; [7],11
same,Infectious: events/subject,[3]; [7],1.38
same,Integumentary: # of events,[3]; [7],21
same,Integumentary: # of subjects,[3]; [7],11
same,Integumentary: events/subject,[3]; [7],1.13
same,Musculoskeletal: # of events,[3]; [7],14
same,Musculoskeletal: # of subjects,[3]; [7],13
same,Musculoskeletal: events/subject,[3]; [7],0.75
same,Neurological: # of events,[3]; [7],16
same,Neurological: # of subjects,[3]; [7],10
same,Neurological: events/subject,[3]; [7],0.56
same,Other: # of events,[3]; [7],19
same,Other: # of subjects,[3]; [7],11
same,Pain: # of events,[3]; [7],31
same,Pain: # of subjects,[3]; [7],14
same,Psychiatric: # of events,[3]; [7],18
same,Psychiatric: # of subjects,[3]; [7],8
same,Psychiatric: events/subject,[3]; [7],1.13
same,Respiratory: # of events,[3]; [7],13
same,Respiratory: # of subjects,[3]; [7],9
same,Respiratory: events/subject,[3]; [7],0.81
same,Serious adverse events: # of events,[3]; [7],1
same,Serious adverse events: # of subjects,[3]; [7],1
same,Serious adverse events: events/subject,[3]; [7],0.06
same,Autonomic dysreflexia: # of events,[3]; [8],0
same,Autonomic dysreflexia: # of subjects,[3]; [8],0
same,Cardiac: # of events,[3]; [8],5
same,Cardiac: # of subjects,[3]; [8],4
same,Deep venous thrombosis: # of events,[3]; [8],0
same,Deep venous thrombosis: # of subjects,[3]; [8],0
same,Deep venous thrombosis: events/subject,[3]; [8],0
same,Endocrine: # of events,[3]; [8],1
same,Endocrine: # of subjects,[3]; [8],1
same,Endocrine: events/subject,[3]; [8],0.2
same,Gastrointestinal: # of events,[3]; [8],12
same,Gastrointestinal: # of subjects,[3]; [8],5
same,Gastrointestinal: events/subject,[3]; [8],2.2
same,Genito-urinary: # of events,[3]; [8],0
same,Genito-urinary: # of subjects,[3]; [8],0
same,Genito-urinary: events/subject,[3]; [8],0
same,Haematological: # of events,[3]; [8],2
same,Haematological: # of subjects,[3]; [8],2
same,Haematological: events/subject,[3]; [8],0.4
same,Infectious: # of events,[3]; [8],12
same,Infectious: # of subjects,[3]; [8],4
same,Infectious: events/subject,[3]; [8],1.8
same,Integumentary: # of events,[3]; [8],5
same,Integumentary: # of subjects,[3]; [8],4
same,Integumentary: events/subject,[3]; [8],1.0
same,Musculoskeletal: # of events,[3]; [8],4
same,Musculoskeletal: # of subjects,[3]; [8],4
same,Musculoskeletal: events/subject,[3]; [8],0.6
same,Neurological: # of events,[3]; [8],11
same,Neurological: # of subjects,[3]; [8],5
same,Neurological: events/subject,[3]; [8],1.6
same,Other: # of events,[3]; [8],13
same,Other: # of subjects,[3]; [8],5
same,Pain: # of events,[3]; [8],10
same,Pain: # of subjects,[3]; [8],5
same,Psychiatric: # of events,[3]; [8],8
same,Psychiatric: # of subjects,[3]; [8],4
same,Psychiatric: events/subject,[3]; [8],1.2
same,Respiratory: # of events,[3]; [8],5
same,Respiratory: # of subjects,[3]; [8],4
same,Respiratory: events/subject,[3]; [8],1.0
same,Serious adverse events: # of events,[3]; [8],1
same,Serious adverse events: # of subjects,[3]; [8],1
same,Serious adverse events: events/subject,[3]; [8],0.2
same,"adverse events among placebo, low-dose and high-dose groups",[3]; low-dose (200 mg) or high-dose (400 mg) vs placebo,did not vary significantly
same,hindlimb motor function,SCI [4],significantly increased
same,inhibition of MMP activity,MMP activity,potent inhibitor
same,effects of hypoxic-ischemic brain injury,[5],significantly exacerbated
